Legend:
[1] = compared with parthenolide; cited from earlier work
[2] = tested on: colon cancer cells (HCT-116); assay: MTT cell viability assay, HCT-116; assay type: cell-based, human
Procedure: (§1) The anticancer activity of the compounds was determined using a MTT (3-[4,5-dimethylthiazol-2-yl]-2,5 diphenyl tetrazolium bromide) assay, which measures cell viability upon incubation of the cells with the compounds. […] Other notable structure-activity insights include the large impact on the linkage utilized for macrocyclization of 14-hydroxy-PTL-derived AB08 and AB24 on the cancer cell specificity of these molecules.
(§2) Experimental Procedures. All cancer cell lines were maintained in a 37° C. humidified incubator with 5% C02. A549, MDA-MB-231, PC-3, SK-N-MC, HeLa, SJSA-1, HCT-116, and SK-MEL-2 cells were cultured in DMEM medium (Gibco) supplemented with 10% FBS (Gibco) and 100 I.U./ml penicillin-streptomycin (Sigma). Adherent cells were dissociated using Accutase (Millipore) or trypsin-EDTA 0.25% (Gibco). Adherent cells were seeded in a 96-well plate at a density of 1000-20,000 cells per well in 180 μl complete DMEM media. Suspension cells were seeded in conical 96-well plates (Nunc) at a density of 30,000 cells per well in 90 ul of complete α-MEM media devoid of phenol red indicator. The plates were incubated in a humidified incubator for 16 hours prior to treatment. […] The resulting OD was measured at 550 nm using a multi-well plate reader (Tecan). […] The resulting absorbance was measured at 570 nm and 600 nm using a multi-well plate reader (Tecan).

[3] = tested on: human cancer cells: PC3, SK-N-MC, MDA-MB-231, A549, HeLa, SK-MEL-2, SJSA-1, HCT-116; assay: MTT cell viability assay, panel of cancer cell lines; assay type: cell-based; settings: 24 hours; for anticancer activity profile (cytotoxicity spectrum / cancer-type specificity): reduction of cell viability at 10 μM and 20 μM; for anticancer activity (reduction of cancer cell viability): 10 μM and 20 μM
Procedure: as §1
Experimental Procedures. All cancer cell lines were maintained in a 37° C. humidified incubator with 5% C02. A549, MDA-MB-231, PC-3, SK-N-MC, HeLa, SJSA-1, HCT-116, and SK-MEL-2 cells were cultured in DMEM medium (Gibco) supplemented with 10% FBS (Gibco) and 100 I.U./ml penicillin-streptomycin (Sigma). Adherent cells were dissociated using Accutase (Millipore) or trypsin-EDTA 0.25% (Gibco). Adherent cells were seeded in a 96-well plate at a density of 1000-20,000 cells per well in 180 μl complete DMEM media. Suspension cells were seeded in conical 96-well plates (Nunc) at a density of 30,000 cells per well in 90 ul of complete α-MEM media devoid of phenol red indicator. The plates were incubated in a humidified incubator for 16 hours prior to treatment. PTL analogs were prepared as concentrated stocks (2 mM) in DMSO and stored at −30° C. Prior to testing, the analogs were diluted into complete cell culture medium and the media was supplemented with sterile DMSO (10% of final volume). For the initial cytotoxicity screening, the compounds were added to the cells in 20 μl aliquots to give a final concentration of 20 μM and 10 μM parthenologs and 1% DMSO (n=3). Following a 24-hour incubation, the culture media from the adherent cell plates (e.g., HeLa, A549) was aspirated and replaced with 100 pd of 1 mg/mL Thiazolyl Blue Tetrazolium Bromide (MTT, Fisher) in complete culture medium devoid of phenol red. After incubation at 37° C. for 1 hour, the plates were centrifuged (4000 rpm, 5 minutes), the media was removed and 100 ul of DMSO was added to solubilize the formazan product. The resulting OD was measured at 550 nm using a multi-well plate reader (Tecan). Suspension cells were treated for 24 hours in the presence or in the absence of the compounds at 10 μM and 20 μM, followed by measurement of cell viability using alamarBlue stain. After incubation, […] of AlamarBlue (Invitrogen) was added to each well and incubated until color change was observed, typically approximately 20-24 hours, in the control wells (1% DMSO in media, no compound). The resulting absorbance was measured at 570 nm and 600 nm using a multi-well plate reader (Tecan).

[4] = tested on: lung adenocarcinoma (A549); assay: MTT cell viability assay, A549; assay type: cell-based, human; settings: relative to PTL
Procedure: as §1, §2

[5] = tested on: breast cancer cells (MDA-MB-231); assay: MTT cell viability assay, MDA-MB-231; assay type: cell-based, human; settings: relative to PTL
Procedure: as §1, §2

[6] = tested on: cervical (HeLa) cancer cells; assay: MTT cell viability assay, HeLa; assay type: cell-based, human; settings: 10 μM and 20 μM, 24 hours
Procedure: as §1, §2

leukemia cell line HL-60 = assay: alamarBlue cell viability assay, HL-60; assay type: cell-based; settings: 10 μM and 20 μM, 24 hours
Procedure: The antileukemic activity of the PTL analogs was evaluated using the leukemia cell line HL-60 and the leukemia stem cell line M9-ENL1. To measure the compound activity against hematologic cells, cells were treated for 24 hours in the presence or in the absence of the PTL analog at 10 μM and 20 μM, followed by measurement of cell viability using alamarBlue stain (FIG. 9).
as §2, with “treatment. PTL analogs were prepared as concentrated stocks (2 mM) in DMSO and stored at −30° C.” for “treatment.”

## CC1=CCCC2(C)OC2C2OC(=O)C(C)C2CC1 (stereo not shown)
[1]
  anticancer and anti-inflammatory activity after reduction of the α-methylene-γ-lactone group: complete loss of activity

## C=C1CC[C@H]2C(=C)C(=O)O[C@@H]2[C@H]2O[C@]2(C)CCC=CCCC(=O)OC1 [AB07]
[2]; HCT-116, relative to PTL
  increased potency compared to PTL, based on half-maximal lethal dose (LD50): > 3 fold

## C=C(C)[C@@H]1C[C@H]2C(=C)C(=O)O[C@@H]2[C@H]2O[C@]2(C)CCC=CCCC(=O)O1 [AB10]
[3]
  anticancer activity profile (cytotoxicity spectrum / cancer-type specificity): intermediate

## C=C1C(=O)O[C@@H]2[C@H]3O[C@]3(C)CC[C@@H]3C(=CCn4c(=O)n(-c5ccccc5)c(=O)n43)CC[C@@H]12 [AB16]
[3]
  anticancer activity (reduction of cancer cell viability): potent anticancer activity against at least six cell lines
  anticancer activity profile (cytotoxicity spectrum / cancer-type specificity): intermediate

## C=C1C(=O)O[C@@H]2[C@H]3O[C@]3(C)CCC3C(=CCC(C#N)(C#N)C3(C#N)C#N)CC[C@@H]12 (stereo partly shown) [AB17]
[3]
  anticancer activity (reduction of cancer cell viability): lower activity against the same cell lines

## C=C1C(=O)O[C@@H]2[C@H]3O[C@]3(C)CC[C@@H]3C(=CC[C@@H]4C(=O)OC(=O)[C@@H]43)CC[C@@H]12 [AB18]
[3]
  anticancer activity (reduction of cancer cell viability): lower activity against the same cell lines

## C=C1C(=O)O[C@@H]2[C@H]3O[C@]3(C)CCC3C(=CCC4=C3C(O)C=CC4O)CC[C@@H]12 (stereo partly shown) [AB19]
[3]
  anticancer activity (reduction of cancer cell viability): potent anticancer activity against at least six cell lines
  anticancer activity profile (cytotoxicity spectrum / cancer-type specificity): intermediate

## C=C/C1=C\CC[C@@]2(C)O[C@@H]2[C@H]2OC(=O)C(=C)[C@@H]2CC1 [AB20]
[3]
  anticancer activity profile (cytotoxicity spectrum / cancer-type specificity): high cancer-type specificity

## C=C1CC[C@H]2C(=C)C(=O)O[C@@H]2[C@@H]2O[C@]2(C)CCC/C=C\Cc2ccccc2C(=O)OC1 [AB24]
[3]
  anticancer activity profile (cytotoxicity spectrum / cancer-type specificity): broad-spectrum cytotoxicity

## C=C(C)[C@@H]1C[C@H]2C(=C)C(=O)O[C@@H]2[C@@H]2O[C@]2(C)CCCC=CCc2ccccc2C(=O)O1 [AB25]
[3]
  anticancer activity profile (cytotoxicity spectrum / cancer-type specificity): broad-spectrum cytotoxicity
[4]
  enhanced potency compared to PTL, based on half-maximal lethal dose (LD50): 210 fold
[5]
  enhanced potency compared to PTL, based on half-maximal lethal dose (LD50): 210 fold

## C=CCC[C@@]1(C)O[C@@H]1[C@H]1OC(=O)C(=C)[C@@H]1CCC(=C)C=O [AB26]
[3]
  anticancer activity profile (cytotoxicity spectrum / cancer-type specificity): high cancer-type specificity

## C=C1C(=O)O[C@@H]2[C@H]3O[C@]3(C)CC/C=C3\COC(=O)O[C@H]3C[C@@H]12 [JMB02]
[3]
  anticancer activity (reduction of cancer cell viability): less potent anticancer activity

## C=C1C(=O)O[C@@H]2[C@H]3O[C@]3(C)CC/C=C3\COS(=O)(=O)O[C@H]3C[C@@H]12 [JMB03]
[3]
  anticancer activity profile (cytotoxicity spectrum / cancer-type specificity): high cancer-type specificity
[2]; 10 μM and 20 μM, 24 hours
  selective activity against colon (HCT-116) cancer cells: selective activity
[6]
  selective activity against cervical (HeLa) cancer cells: selective activity

## C=C1C(=O)O[C@@H]2[C@H]3O[C@]3(C)CCC(Sc3ccccc3)C(C=O)C(=O)C[C@@H]12 (stereo partly shown) [JMB06]
Leukemia cell line HL-60
  anticancer activity against HL-60: relatively selective anticancer activity

## C=C1C(=O)O[C@@H]2[C@H]3O[C@]3(C)CCC(C3C=CC(=O)O3)C(C=O)C(=O)C[C@@H]12 (stereo partly shown) [JMB07]
Leukemia cell line HL-60
  anticancer activity against HL-60: relatively selective anticancer activity

## C=C1C(=O)O[C@@H]2[C@H]3O[C@]3(C)CC/C=C(\C)C(=O)C[C@@H]12 [JMB08]
[3]
  anticancer activity profile (cytotoxicity spectrum / cancer-type specificity): intermediate

— patent publication US20250197416A1, “PARTHENOLIDE DERIVATIVES AND USE THEREOF” (University of Rochester, priority 2022, published 2025)
